Measured values: patent publication US6825170B2, “6-O-acyl ketolide antibacterials” (Ortho-McNeil Pharmaceutical, Inc., priority 2001, dated 2004)
≈ marks a conversion by molar mass, not a printed value.

Legend:
Test in all cases: MIC, microdilution broth method (NCCLS)
Format in all cases: cell-based
Conditions in all cases: 35° C., 16-20 hours
S. pneumoniae ATCC49619 = system: S. pneumoniae ATCC49619
Procedure, shortened: (§1)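 Growth in each compound well, compared with drug-free control wells after 16-20 h at 35° C, defines the MIC. Wells hold two-fold dilutions in cation-adjusted Mueller-Hinton broth with roughly 5×10^4 CFU/well.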

E. faecalis ATCC29212 = system: E. faecalis ATCC29212
Procedure, shortened: as §1

E. coli OC2605 = system: E. coli OC2605
Procedure, shortened: as §1

S. aureus ATCC29213 = system: S. aureus ATCC29213
Procedure, shortened: as §1

H. influenzae ATCC49247 = system: H. influenzae ATCC49247
Procedure, shortened: as §1

SMILES: CCC1OC(=O)C(C)C(=O)C(C)C(OC2OC(C)CC(N(C)C)C2O)C(C)(OC(=O)OCC=Cc2ccccc2)CC(C)C(=O)C(C)C2NC(=O)OC12C (stereo not shown) [Compound 6]
- MIC (D: S. pneumoniae ATCC49619) (S. pneumoniae ATCC49619): 0.03 µg/mL (≈ 0.0395 µM)
- MIC (C: E. faecalis ATCC29212) (E. faecalis ATCC29212): 0.12 µg/mL (≈ 0.158 µM)
- MIC (A: E. coli OC2605) (E. coli OC2605): 16 µg/mL (≈ 21.1 µM)
- MIC (B: S. aureus ATCC29213) (S. aureus ATCC29213): 0.12 µg/mL (≈ 0.158 µM)
- MIC (E: H. influenzae ATCC49247) (H. influenzae ATCC49247): 1 µg/mL (≈ 1.32 µM)

SMILES: CC[C@H]1OC(=O)[C@H](C)C(=O)[C@H](C)[C@@H](O[C@@H]2O[C@H](C)C[C@H](N(C)C)[C@H]2O)[C@](C)(OC(=O)NNC/C=C/c2ccc(-c3ncccn3)cc2)C[C@@H](C)C(=O)[C@H](C)[C@H]2NC(=O)O[C@@]21C [Compound 805]
- MIC (D: S. pneumoniae ATCC49619) (S. pneumoniae ATCC49619): 0.06 µg/mL (≈ 0.0705 µM)
- MIC (C: E. faecalis ATCC29212) (E. faecalis ATCC29212): 0.25 µg/mL (≈ 0.294 µM)
- MIC (A: E. coli OC2605) (E. coli OC2605): 16 µg/mL (≈ 18.8 µM)
- MIC (B: S. aureus ATCC29213) (S. aureus ATCC29213): 0.25 µg/mL (≈ 0.294 µM)
- MIC (E: H. influenzae ATCC49247) (H. influenzae ATCC49247): 2 µg/mL (≈ 2.35 µM)

SMILES: CC[C@H]1OC(=O)[C@H](C)C(=O)[C@H](C)[C@@H](O[C@@H]2O[C@H](C)C[C@H](N(C)C)[C@H]2O)[C@](C)(OC(=O)NOCCc2ccccc2)C[C@@H](C)C(=O)[C@H](C)[C@H]2NC(=O)O[C@@]21C [Compound 611]
- MIC (D: S. pneumoniae ATCC49619) (S. pneumoniae ATCC49619): 0.12 µg/mL (≈ 0.157 µM)
- MIC (C: E. faecalis ATCC29212) (E. faecalis ATCC29212): 0.5 µg/mL (≈ 0.656 µM)
- MIC (A: E. coli OC2605) (E. coli OC2605): >16 µg/mL
- MIC (B: S. aureus ATCC29213) (S. aureus ATCC29213): 2 µg/mL (≈ 2.62 µM)
- MIC (E: H. influenzae ATCC49247) (H. influenzae ATCC49247): 8 µg/mL (≈ 10.5 µM)

SMILES: CC[C@H]1OC(=O)[C@H](C)C(=O)[C@H](C)[C@@H](O[C@@H]2O[C@H](C)C[C@H](N(C)C)[C@H]2O)[C@](C)(OC(=O)NNCc2ccc3ncccc3c2)C[C@@H](C)C(=O)[C@H](C)[C@H]2NC(=O)O[C@@]21C [Compound 661]
- MIC (D: S. pneumoniae ATCC49619) (S. pneumoniae ATCC49619): 0.03 µg/mL (≈ 0.0376 µM)
- MIC (C: E. faecalis ATCC29212) (E. faecalis ATCC29212): 0.12 µg/mL (≈ 0.15 µM)
- MIC (A: E. coli OC2605) (E. coli OC2605): >16 µg/mL
- MIC (B: S. aureus ATCC29213) (S. aureus ATCC29213): 0.5 µg/mL (≈ 0.627 µM)
- MIC (E: H. influenzae ATCC49247) (H. influenzae ATCC49247): 2 µg/mL (≈ 2.51 µM)

SMILES: CCC1OC(=O)C(C)C(=O)C(C)C(OC2OC(C)CC(N(C)C)C2O)C(C)(OC(=O)NOCc2ccccc2)CC(C)C(=O)C(C)C2NC(=O)OC12C (stereo not shown) [Compound 570]
- MIC (D: S. pneumoniae ATCC49619) (S. pneumoniae ATCC49619): 0.03 µg/mL (≈ 0.0401 µM)
- MIC (C: E. faecalis ATCC29212) (E. faecalis ATCC29212): 0.25 µg/mL (≈ 0.334 µM)
- MIC (A: E. coli OC2605) (E. coli OC2605): >16 µg/mL
- MIC (B: S. aureus ATCC29213) (S. aureus ATCC29213): 1 µg/mL (≈ 1.34 µM)
- MIC (E: H. influenzae ATCC49247) (H. influenzae ATCC49247): 4 µg/mL (≈ 5.35 µM)

SMILES: CCC1OC(=O)C(C)C(=O)C(C)C(OC2OC(C)CC(N(C)C)C2O)C(C)(OC(=O)NOCCc2ccc(-c3ncccn3)cc2)CC(C)C(=O)C(C)C2NC(=O)OC12C (stereo not shown) [Compound 571]
- MIC (D: S. pneumoniae ATCC49619) (S. pneumoniae ATCC49619): 0.03 µg/mL (≈ 0.0357 µM)
- MIC (C: E. faecalis ATCC29212) (E. faecalis ATCC29212): 0.12 µg/mL (≈ 0.143 µM)
- MIC (A: E. coli OC2605) (E. coli OC2605): >16 µg/mL
- MIC (B: S. aureus ATCC29213) (S. aureus ATCC29213): 0.5 µg/mL (≈ 0.595 µM)
- MIC (E: H. influenzae ATCC49247) (H. influenzae ATCC49247): 4 µg/mL (≈ 4.76 µM)

SMILES: CC[C@H]1OC(=O)[C@H](C)C(=O)[C@H](C)[C@@H](O[C@@H]2O[C@H](C)C[C@H](N(C)C)[C@H]2O)[C@](C)(OC(=O)NN(C)CCc2ccc(-c3ncccn3)cc2)C[C@@H](C)C(=O)[C@H](C)[C@H]2NC(=O)O[C@@]21C [Compound 803]
- MIC (D: S. pneumoniae ATCC49619) (S. pneumoniae ATCC49619): 0.03 µg/mL (≈ 0.0352 µM)
- MIC (C: E. faecalis ATCC29212) (E. faecalis ATCC29212): 0.12 µg/mL (≈ 0.141 µM)
- MIC (A: E. coli OC2605) (E. coli OC2605): >16 µg/mL
- MIC (B: S. aureus ATCC29213) (S. aureus ATCC29213): 0.25 µg/mL (≈ 0.293 µM)
- MIC (E: H. influenzae ATCC49247) (H. influenzae ATCC49247): 4 µg/mL (≈ 4.69 µM)

SMILES: CCC1OC(=O)C(C)C(=O)C(C)C(OC2OC(C)CC(N(C)C)C2O)C(C)(OC(=O)OCC=Cc2ccc(-c3ncccn3)cc2)CC(C)C(=O)C(C)C2NC(=O)OC12C (stereo not shown) [Compound 7]
- MIC (D: S. pneumoniae ATCC49619) (S. pneumoniae ATCC49619): 0.03 µg/mL (≈ 0.0358 µM)
- MIC (C: E. faecalis ATCC29212) (E. faecalis ATCC29212): 0.06 µg/mL (≈ 0.0717 µM)
- MIC (A: E. coli OC2605) (E. coli OC2605): 8 µg/mL (≈ 9.56 µM)
- MIC (B: S. aureus ATCC29213) (S. aureus ATCC29213): 0.12 µg/mL (≈ 0.143 µM)
- MIC (E: H. influenzae ATCC49247) (H. influenzae ATCC49247): 2 µg/mL (≈ 2.39 µM)

SMILES: CC[C@H]1OC(=O)[C@H](C)C(=O)[C@H](C)[C@@H](O[C@@H]2O[C@H](C)C[C@H](N(C)C)[C@H]2O)[C@](C)(OC(=O)NN2CCC(c3ccccc3)CC2)C[C@@H](C)C(=O)[C@H](C)[C@H]2NC(=O)O[C@@]21C [Compound 807]
- MIC (S. pneumoniae ATCC49619; Streptococcus pneumoniae, read-out: MIC (D: S. pneumoniae ATCC49619)): 0.12 µg/mL (≈ 0.15 µM)
- MIC (E. faecalis ATCC29212; Enterococcus faecalis): 1 µg/mL (≈ 1.25 µM)
- MIC (E. coli OC2605; Escherichia coli): > 16 µg/mL
- MIC (S. aureus ATCC29213; Staphylococcus aureus, read-out: MIC (B: S. aureus ATCC29213)): 2 µg/mL (≈ 2.5 µM)
- MIC (H. influenzae ATCC49247; Haemophilus influenzae, read-out: MIC (E: H. influenzae ATCC49247)): 4 µg/mL (≈ 4.99 µM)

SMILES: CC[C@H]1OC(=O)[C@H](C)C(=O)[C@H](C)[C@@H](O[C@@H]2O[C@H](C)C[C@H](N(C)C)[C@H]2O)[C@](C)(OC(=O)NNc2ccccc2)C[C@@H](C)C(=O)[C@H](C)[C@H]2NC(=O)O[C@@]21C [Compound 624]
- MIC (D: S. pneumoniae ATCC49619) (S. pneumoniae ATCC49619): 0.12 µg/mL (≈ 0.164 µM)
- MIC (C: E. faecalis ATCC29212) (E. faecalis ATCC29212): 0.5 µg/mL (≈ 0.682 µM)
- MIC (A: E. coli OC2605) (E. coli OC2605): >16 µg/mL
- MIC (B: S. aureus ATCC29213) (S. aureus ATCC29213): 4 µg/mL (≈ 5.46 µM)
- MIC (E: H. influenzae ATCC49247) (H. influenzae ATCC49247): 4 µg/mL (≈ 5.46 µM)

SMILES: CCC1OC(=O)C(C)C(=O)C(C)C(OC2OC(C)CC(N(C)C)C2O)C(C)(OC(=O)n2cccc2)CC(C)C(=O)C(C)C2NC(=O)OC12C (stereo not shown) [Compound 2]
- MIC (D: S. pneumoniae ATCC49619) (S. pneumoniae ATCC49619): 0.5 µg/mL (≈ 0.723 µM)
- MIC (C: E. faecalis ATCC29212) (E. faecalis ATCC29212): 8 µg/mL (≈ 11.6 µM)
- MIC (A: E. coli OC2605) (E. coli OC2605): >16 µg/mL
- MIC (B: S. aureus ATCC29213) (S. aureus ATCC29213): >16 µg/mL
- MIC (E: H. influenzae ATCC49247) (H. influenzae ATCC49247): >16 µg/mL

SMILES: CCC1OC(=O)C(C)C(=O)C(C)C(OC2OC(C)CC(N(C)C)C2O)C(C)(OC(=O)OCC=Cc2ccc(-c3cccnn3)cc2)CC(C)C(=O)C(C)C2NC(=O)OC12C (stereo not shown) [Compound 20]
- MIC (D: S. pneumoniae ATCC49619) (S. pneumoniae ATCC49619): 0.03 µg/mL (≈ 0.0358 µM)
- MIC (C: E. faecalis ATCC29212) (E. faecalis ATCC29212): 0.06 µg/mL (≈ 0.0717 µM)
- MIC (A: E. coli OC2605) (E. coli OC2605): 8 µg/mL (≈ 9.56 µM)
- MIC (B: S. aureus ATCC29213) (S. aureus ATCC29213): 0.12 µg/mL (≈ 0.143 µM)
- MIC (E: H. influenzae ATCC49247) (H. influenzae ATCC49247): 2 µg/mL (≈ 2.39 µM)

SMILES: CCC1OC(=O)C(C)C(=O)C(C)C(OC2OC(C)CC(N(C)C)C2O)C(C)(OC(=O)NOCc2ccc(-c3ncccn3)cc2)CC(C)C(=O)C(C)C2NC(=O)OC12C (stereo not shown) [Compound 599]
- MIC (D: S. pneumoniae ATCC49619) (S. pneumoniae ATCC49619): 0.06 µg/mL (≈ 0.0726 µM)
- MIC (C: E. faecalis ATCC29212) (E. faecalis ATCC29212): 0.25 µg/mL (≈ 0.303 µM)
- MIC (A: E. coli OC2605) (E. coli OC2605): 16 µg/mL (≈ 19.4 µM)
- MIC (B: S. aureus ATCC29213) (S. aureus ATCC29213): 0.5 µg/mL (≈ 0.605 µM)
- MIC (E: H. influenzae ATCC49247) (H. influenzae ATCC49247): 2 µg/mL (≈ 2.42 µM)

SMILES: CCC1OC(=O)C(C)C(=O)C(C)C(OC2OC(C)CC(N(C)C)C2O)C(C)(OC(=O)OCC#Cc2ccc(-c3ncccn3)cc2)CC(C)C(=O)C(C)C2NC(=O)OC12C (stereo not shown) [Compound 80]
- MIC (D: S. pneumoniae ATCC49619) (S. pneumoniae ATCC49619): 0.03 µg/mL (≈ 0.0359 µM)
- MIC (C: E. faecalis ATCC29212) (E. faecalis ATCC29212): 0.12 µg/mL (≈ 0.144 µM)
- MIC (A: E. coli OC2605) (E. coli OC2605): 16 µg/mL (≈ 19.2 µM)
- MIC (B: S. aureus ATCC29213) (S. aureus ATCC29213): 0.25 µg/mL (≈ 0.299 µM)
- MIC (E: H. influenzae ATCC49247) (H. influenzae ATCC49247): 2 µg/mL (≈ 2.4 µM)
